Experimental findings from paper PMC2916072 (Archives of biochemistry and biophysics, 2010) are described below.

Structures are written as SMILES.

In this assay the target is Met receptor tyrosine kinase (Homo sapiens, UniProt P08581). Nature of the assay: phospho-Met. The format is cell-based.
Chain of Met receptor tyrosine kinase (P08581 25-307): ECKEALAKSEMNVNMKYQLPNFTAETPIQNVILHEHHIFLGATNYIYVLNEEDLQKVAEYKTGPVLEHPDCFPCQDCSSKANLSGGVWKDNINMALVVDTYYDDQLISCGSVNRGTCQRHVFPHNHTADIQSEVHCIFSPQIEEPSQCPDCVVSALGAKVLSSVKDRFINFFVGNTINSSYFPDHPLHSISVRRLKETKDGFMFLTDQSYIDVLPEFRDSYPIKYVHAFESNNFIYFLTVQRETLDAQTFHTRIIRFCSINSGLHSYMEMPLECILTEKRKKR
Chain of Met receptor tyrosine kinase (P08581 308-1390): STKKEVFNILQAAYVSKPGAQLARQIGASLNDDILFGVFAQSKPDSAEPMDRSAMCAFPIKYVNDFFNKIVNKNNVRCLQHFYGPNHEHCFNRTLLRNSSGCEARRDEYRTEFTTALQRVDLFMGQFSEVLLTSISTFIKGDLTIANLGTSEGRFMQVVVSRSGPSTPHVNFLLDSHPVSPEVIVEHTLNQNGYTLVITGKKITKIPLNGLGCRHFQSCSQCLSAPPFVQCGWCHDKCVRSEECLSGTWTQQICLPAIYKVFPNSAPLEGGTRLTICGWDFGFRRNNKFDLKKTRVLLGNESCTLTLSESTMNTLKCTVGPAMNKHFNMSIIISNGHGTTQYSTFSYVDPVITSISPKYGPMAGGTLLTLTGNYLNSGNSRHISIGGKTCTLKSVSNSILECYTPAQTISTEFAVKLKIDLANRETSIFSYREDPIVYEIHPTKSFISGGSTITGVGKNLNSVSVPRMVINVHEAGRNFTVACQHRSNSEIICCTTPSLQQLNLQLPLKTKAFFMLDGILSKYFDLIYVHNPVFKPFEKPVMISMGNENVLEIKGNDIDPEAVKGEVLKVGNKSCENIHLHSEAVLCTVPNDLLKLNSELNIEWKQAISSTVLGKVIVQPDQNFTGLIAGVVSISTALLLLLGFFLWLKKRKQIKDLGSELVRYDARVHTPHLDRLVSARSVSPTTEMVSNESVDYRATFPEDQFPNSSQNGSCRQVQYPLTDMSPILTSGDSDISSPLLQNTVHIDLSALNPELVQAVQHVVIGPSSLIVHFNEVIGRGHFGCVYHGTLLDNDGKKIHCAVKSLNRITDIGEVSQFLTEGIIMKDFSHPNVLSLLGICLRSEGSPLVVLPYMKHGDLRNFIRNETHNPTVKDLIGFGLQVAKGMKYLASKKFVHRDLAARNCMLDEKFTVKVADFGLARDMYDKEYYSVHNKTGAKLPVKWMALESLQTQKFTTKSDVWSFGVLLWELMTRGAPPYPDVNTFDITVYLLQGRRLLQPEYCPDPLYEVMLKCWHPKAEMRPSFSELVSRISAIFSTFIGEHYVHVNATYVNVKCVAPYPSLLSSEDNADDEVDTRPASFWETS

As to `Cc1[nH]c(/C=C2\C(=O)Nc3ccc(S(=O)(=O)N(C)c4cccc(Cl)c4)cc32)c(C)c1C(=O)N1CCN(C)CC1` [SU11274, (3Z)-N-(3-chlorophenyl)-3-({3,5-dimethyl-4-[(4-methylpiperazin-1-yl)carbonyl]-1H-pyrrol-2-yl}methylene)-N-methyl-2-oxoindoline-5-sulfonamide], the IC50 was found to be 50 nM. This counts as double-digit nanomolar.
